Source: US9579335B2, “Treatment of cystic diseases” (Indiana University Research and Technology Corporation, priority 2010, dated 2017)

Test system: mpkCCDcl4 cells
Assay: Ussing-chamber short-circuit current (SCC) measurement of net transepithelial ion transport
Format: cell-based, mouse
Settings: for effect of pretreatment on cyst fluid stimulated ion transport (SCC): inhibitor/effector added before 10% cyst fluid on serosal side; for ion transport (SCC) response to addition of the substance itself: added to the bathing media of monolayers, no prior stimulus
Description: mpkCCDcl4 cell culture. mpkCCDcl4 cells were developed as a line expressing the characteristics of the principal cell type of the distal nephron and cortical collecting duct. mpkCCDcl4 cells were grown in a humidified chamber at 37° C. and 5% CO2. The cell line was maintained in plastic culture flasks for propagation. For electrophysiological measurements, the cells were seeded onto Transwell filters at ¼ confluent density. The media was replaced thrice weekly and consisted of Dulbecco's modified Eagle's medium (DMEM): Ham's F12 basal media supplemented with 2% fetal bovine serum, 1 mM Glutamax, 25 U/mL penicillin, […] streptomycin, 12 mg/L ciprofloxacin, 5 mg/L transferrin, 20 μg/L sodium selenite, and 10^−7 M triiodothyronine.
Electrophysiology. Ussing-style electrophysiological measurements were used to measure net transepithelial transport as well as to monitor the transepithelial resistance as described previously. Briefly, transwell permeable membranes containing confluent (>10 days post seeding) monolayers of mpkCCDcl4 cells were excised from the plastic supports, mounted in modified Ussing chambers, and connected to a DVC-1000 Voltage/Current Clamp (World Precision Instruments) with voltage and current electrodes on either side of the membrane. The cells were bathed in serum-free medium maintained at 37° C. via water-jacketed buffer chambers on either side of the filter. Medium was circulated and kept at constant pH using a 5% CO2/95% O2 gas lift. The spontaneous transepithelial potential difference was measured and then clamped to zero. The resulting short-circuit current (SCC) is a measure of net transepithelial ion transport. During the entire experiment, non-zero voltage pulses are induced every 200 seconds and the current displacement during the pulse is used to calculate the transepithelial resistance via Ohm's law. Cultures with resistances lower than 1000 Ω·cm^2 measured within the first 10 minutes of placement in the chambers were discarded. The basal level of transport was monitored for 20-40 minutes before the start of an experiment. The time of addition of the stimulatory effector is defined as zero time.
Unless otherwise stated, each experiment was repeated 3-4 times. Because of variability in the magnitude of the stimulatory responses to cyst fluid from various patients, only one representative experiment is depicted.
The functional effects of cyst fluid were measured as changes in net transepithelial ion transport across high resistance epithelia formed by the mpkCCDcl4 cell line. […] For electrophysiological measurements, confluent cell monolayers grown on permeable supports are mounted in Ussing chambers with access to both the basolateral and apical surfaces. The spontaneous transepithelial potential difference is measured and clamped to zero. In high resistance epithelia, the resulting short-circuit current (SCC) is a measure of net transepithelial transport. By convention, a positive change is defined as anion moving in a secretory direction (serosal to luminal bathing media) or a cation moving in an absorptive direction (luminal to serosal bathing media). Likewise, a decrease in SCC can be defined as anions or cations moving in the opposite direction from that described above. The nature and direction of the ion flux is characterized by effectors and inhibitors.

Compound | effect of pretreatment on cyst fluid stimulated ion transport (SCC) | ion transport (SCC) response to addition of the substance itself | also measured
O=C(OC[C@H]1O[C@@H](OC(=O)c2cc(O)c(O)c(OC(=O)c3cc(O)c(O)c(O)c3)c2)[C@H](OC(=O)c2cc(O)c(O)c(OC(=O)c3cc(O)c(O)c(O)c3)c2)[C@@H](OC(=O)c2cc(O)c(O)c(OC(=O)c3cc(O)c(O)c(O)c3)c2)[C@@H]1OC(=O)c1cc(O)c(O)c(OC(=O)c2cc(O)c(O)c(O)c2)c1)c1cc(O)c(O)c(OC(=O)c2cc(O)c(O)c(O)c2)c1 [tannic acid] | Neither inhibitor alone completely blocked the response |  | 
CCCCCCCC(=O)OC[C@H](COP(=O)(O)OP(=O)(O)O)OC(=O)CCCCCCC [DGPP, diacylglycerol pyrophosphate] | substantially inhibited |  | concentrations with adverse effect on integrity of the cellular monolayer (decrease in transepithelial resistance): above 20 μM; average inhibition of the Cl- secretory peak stimulated in response to 10% cyst fluid (pretreatment with 20 μM DGPP, five experiments): 72.8+4.49%
N-palmitoyl-L-serine phosphoric acid [L-NASPA] | appears to inhibit a subsequent response to cyst fluid | immediate response that mimics the response to LPA or 10% cyst fluid | 
COc1ccc2c(c1)c(CC(=O)O)c(C)n2C(=O)c1ccc(Cl)cc1 [Indomethacin, indomethacin] | did not alter |  | 
CCCCCCCCCCCCC/C=C/[C@@H](O)[C@@H](N)COP(=O)(O)O [S-1-P, sphingosine-1-phosphate] |  | consistently minimal compared to those elicited by LPA | 
O=C(CNc1ccc2ccccc2c1)N/N=C/c1cc(Br)c(O)c(Br)c1O [GlyH-101] | Neither inhibitor alone completely blocked the response | causes a stimulatory response when added | 
lysophosphatic acid [LPA] |  | identical to the response to renal cyst fluid | 
N=C(N)NC(=O)c1nc(Cl)c(N)nc1N [amiloride] |  | immediate decrease in the basal current | effect of pre-treatment on subsequent response to forskolin (amiloride 10^-5 M apical, 10 minutes before forskolin): completely eliminated a subsequent response to forskolin; effect on forskolin-stimulated ion transport, added after forskolin (amiloride 10^-5 M apical, 30 minutes after forskolin): completed inhibited; effect on ion transport remaining 30 minutes after cyst fluid addition (amiloride added to apical bathing media): decreased the remaining ion transport to zero
[Ba+2] [Ba^2+] |  |  | effect on stimulated Cl- secretion (pretreatment on the apical face): without effect; inhibition of stimulated Cl- secretion (pretreatment on the serosal side): about 50%
CCCCCCCCCCCCOP(=O)(O)O [DDP, dodecylphosphate] | no effect |  | 
